Measurements reported in US6525001B1, “Substituted pyrimidine and pyridine herbicides” (Mid-American Commercialization Corporation, priority 1997, dated 2003).

Experiments:
Assay type in all cases: in vivo
Parameters in all cases: key: 0 is no effect; 10 is complete control
[1] = system: bedstraw (Galium aparine); test: Test B pre-/postemergence
Procedure, shortened: (§1)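 Compounds in a surfactant-containing, non-phytotoxic solvent blend are applied to freshly planted seed (preemergence) and, concurrently, to seedlings of 2 to 18 cm at 1–4 leaves (postemergence). Plants stay in the greenhouse twelve to sixteen days and are then scored visually from 0 (no effect) to 10 (complete control).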

[2] = system: broadleaf signalgrass (Brachiaria decumbens); test: Test B pre-/postemergence
Procedure, shortened: as §1

[3] = system: cocklebur (Xanthium strumarium); test: Test B pre-/postemergence
Procedure, shortened: as §1

corn (Zea mays) = test: Test B pre-/postemergence
Procedure, shortened: as §1

[4] = system: giant foxtail (Setaria faberii); test: Test B pre-/postemergence
Procedure, shortened: as §1

[5] = system: momingglory (Ipomoea hederacea); test: Test B pre-/postemergence
Procedure, shortened: as §1

[6] = system: pigweed (Amaranthus retroflexus); test: Test B pre-/postemergence
Procedure, shortened: as §1

rape (Brassica napus) = test: Test B pre-/postemergence
Procedure, shortened: as §1

[7] = system: sugar beet (Beta vulgaris); test: Test B pre-/postemergence
Procedure, shortened: as §1

[8] = system: velvetleaf (Abutilon theophrasti); test: Test B pre-/postemergence
Procedure, shortened: as §1

[9] = system: wheat (Triticum aestivum); test: Test B pre-/postemergence
Procedure, shortened: as §1

[10] = system: bamyardgrass (Echinochloa crus-galli); test: Test B flood test; details: for Plant response rating, Barnyardgrass: Postemergence (flood test species)
Procedure, shortened: (§2)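 Read-out is a visual response score from 0 (no effect) to 10 (complete control), assigned by comparison with untreated controls. Treatment was applied at the 2-leaf stage, and plants stayed in the greenhouse for twelve to sixteen days before scoring.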

[11] = system: duck salad (Heteranthera limosa); test: Test B flood test; details: for Plant response rating, Ducksalad: Postemergence (flood test species)
Procedure, shortened: as §2

rice (Oryza sativa) = test: Test B flood test; details: for Plant response rating, Rice: Postemergence (flood test species)
Procedure, shortened: as §2

[12] = system: smallflower flatsedge (Cyperus difformis); test: Test B flood test; details: for Plant response rating, S. Flatsedge: Postemergence (flood test species)
Procedure, shortened: as §2

[13] = Preemergence, Rate 62 g/ha, scale of 0 to 10
[14] = Rate 62 g/ha, Postemergence (flood test)
[15] = Rate 125 g/ha, Postemergence section (flood test species)

Cc1cnc(-n2ccc(C(F)(F)F)n2)nc1C(=O)c1cccc(OC(F)(F)F)c1 [Compound 66]
Plant response rating, Bedstraw [1, 13]: 1
Bedstraw plant response rating ([1]; Rate 62 g/ha, Postemergence): 2
Bedstraw plant response rating ([1]; Rate 125 g/ha, Postemergence): 3
Plant response rating, Bedstraw ([1]; Rate 125 g/ha, Preemergence): 2
Plant response rating, Bedstraw ([1]; Rate 250 g/ha, Postemergence): 6
Plant response rating, Bedstraw ([1]; Rate 250 g/ha, Preemergence): 3
Plant response rating, Bedstraw ([1]; Rate 500 g/ha, Postemergence): 8
Plant response rating, Bedstraw ([1]; Rate 500 g/ha, Preemergence): 8
B. signalgrass plant response rating ([2]; Rate 62 g/ha, Postemergence): 2
B. signalgrass plant response rating ([2]; Rate 62 g/ha, Preemergence): 9
B. signalgrass plant response rating ([2]; Rate 125 g/ha, Postemergence): 3
Plant response rating, B. signalgrass ([2]; Rate 125 g/ha, Preemergence): 9
Plant response rating, B. signalgrass ([2]; Rate 250 g/ha, Postemergence): 4
Plant response rating, B. signalgrass ([2]; Rate 250 g/ha, Preemergence): 9
Plant response rating, B. signalgrass ([2]; Rate 500 g/ha, Postemergence): 5
Plant response rating, B. signalgrass ([2]; Rate 500 g/ha, Preemergence): 10
Plant response rating, Cocklebur [3, 13]: 0
Cocklebur plant response rating ([3]; Rate 62 g/ha, Postemergence): 3
Cocklebur plant response rating ([3]; Rate 125 g/ha, Postemergence): 4
Plant response rating, Cocklebur ([3]; Rate 125 g/ha, Preemergence): 0
Plant response rating, Cocklebur ([3]; Rate 250 g/ha, Postemergence): 4
Plant response rating, Cocklebur ([3]; Rate 250 g/ha, Preemergence): 0
Plant response rating, Cocklebur ([3]; Rate 500 g/ha, Postemergence): 5
Plant response rating, Cocklebur ([3]; Rate 500 g/ha, Preemergence): 3
Plant response rating, Corn (corn (Zea mays); [13]): 0
Corn plant response rating (corn (Zea mays); Rate 62 g/ha, Postemergence): 1
Corn plant response rating (corn (Zea mays); Rate 125 g/ha, Postemergence): 2
Plant response rating, Corn (corn (Zea mays); Rate 125 g/ha, Preemergence): 1
Plant response rating, Corn (corn (Zea mays); Rate 250 g/ha, Postemergence): 2
Plant response rating, Corn (corn (Zea mays); Rate 250 g/ha, Preemergence): 1
Plant response rating, Corn (corn (Zea mays); Rate 500 g/ha, Postemergence): 3
Plant response rating, Corn (corn (Zea mays); Rate 500 g/ha, Preemergence): 3
Plant response rating, Giant foxtail [4, 13]: 0
Giant foxtail plant response rating ([4]; Rate 62 g/ha, Postemergence): 2
Giant foxtail plant response rating ([4]; Rate 125 g/ha, Postemergence): 2
Plant response rating, Giant foxtail ([4]; Rate 125 g/ha, Preemergence): 1
Plant response rating, Giant foxtail ([4]; Rate 250 g/ha, Postemergence): 2
Plant response rating, Giant foxtail ([4]; Rate 250 g/ha, Preemergence): 2
Plant response rating, Giant foxtail ([4]; Rate 500 g/ha, Postemergence): 4
Plant response rating, Giant foxtail ([4]; Rate 500 g/ha, Preemergence): 4
Plant response rating, Morningglory [5, 13]: 2
Morningglory plant response rating ([5]; Rate 62 g/ha, Postemergence): 2
Morningglory plant response rating ([5]; Rate 125 g/ha, Postemergence): 4
Plant response rating, Morningglory ([5]; Rate 125 g/ha, Preemergence): 3
Plant response rating, Morningglory ([5]; Rate 250 g/ha, Postemergence): 9
Plant response rating, Morningglory ([5]; Rate 250 g/ha, Preemergence): 3
Plant response rating, Morningglory ([5]; Rate 500 g/ha, Postemergence): 10
Plant response rating, Morningglory ([5]; Rate 500 g/ha, Preemergence): 9
Plant response rating, Redroot pigweed [6, 13]: 7
Redroot pigweed plant response rating ([6]; Rate 62 g/ha, Postemergence): 8
Redroot pigweed plant response rating ([6]; Rate 125 g/ha, Postemergence): 9
Plant response rating, Redroot pigweed ([6]; Rate 125 g/ha, Preemergence): 9
Plant response rating, Redroot pigweed ([6]; Rate 250 g/ha, Postemergence): 10
Plant response rating, Redroot pigweed ([6]; Rate 250 g/ha, Preemergence): 9
Plant response rating, Redroot pigweed ([6]; Rate 500 g/ha, Postemergence): 10
Plant response rating, Redroot pigweed ([6]; Rate 500 g/ha, Preemergence): 10
Plant response rating, Rape (rape (Brassica napus); [13]): 0
Rape plant response rating (rape (Brassica napus); Rate 62 g/ha, Postemergence): 3
Rape plant response rating (rape (Brassica napus); Rate 125 g/ha, Postemergence): 3
Plant response rating, Rape (rape (Brassica napus); Rate 125 g/ha, Preemergence): 0
Plant response rating, Rape (rape (Brassica napus); Rate 250 g/ha, Postemergence): 7
Plant response rating, Rape (rape (Brassica napus); Rate 250 g/ha, Preemergence): 4
Plant response rating, Rape (rape (Brassica napus); Rate 500 g/ha, Postemergence): 7
Plant response rating, Rape (rape (Brassica napus); Rate 500 g/ha, Preemergence): 8
Plant response rating, Sugarbeets [7, 13]: 9
Sugarbeets plant response rating ([7]; Rate 62 g/ha, Postemergence): 10
Sugarbeets plant response rating ([7]; Rate 125 g/ha, Postemergence): 10
Plant response rating, Sugarbeets ([7]; Rate 125 g/ha, Preemergence): 10
Plant response rating, Sugarbeets ([7]; Rate 250 g/ha, Postemergence): 10
Plant response rating, Sugarbeets ([7]; Rate 250 g/ha, Preemergence): 10
Plant response rating, Sugarbeets ([7]; Rate 500 g/ha, Postemergence): 10
Plant response rating, Sugarbeets ([7]; Rate 500 g/ha, Preemergence): 10
Plant response rating, Velvetleaf [8, 13]: 1
Velvetleaf plant response rating ([8]; Rate 62 g/ha, Postemergence): 4
Velvetleaf plant response rating ([8]; Rate 125 g/ha, Postemergence): 5
Plant response rating, Velvetleaf ([8]; Rate 125 g/ha, Preemergence): 4
Plant response rating, Velvetleaf ([8]; Rate 250 g/ha, Postemergence): 6
Plant response rating, Velvetleaf ([8]; Rate 250 g/ha, Preemergence): 8
Plant response rating, Velvetleaf ([8]; Rate 500 g/ha, Postemergence): 8
Plant response rating, Velvetleaf ([8]; Rate 500 g/ha, Preemergence): 8
Plant response rating, Wheat [9, 13]: 0
Wheat plant response rating ([9]; Rate 62 g/ha, Postemergence): 2
Wheat plant response rating ([9]; Rate 125 g/ha, Postemergence): 2
Plant response rating, Wheat ([9]; Rate 125 g/ha, Preemergence): 1
Plant response rating, Wheat ([9]; Rate 250 g/ha, Postemergence): 2
Plant response rating, Wheat ([9]; Rate 250 g/ha, Preemergence): 2
Plant response rating, Wheat ([9]; Rate 500 g/ha, Postemergence): 3
Plant response rating, Wheat ([9]; Rate 500 g/ha, Preemergence): 3
Barnyardgrass plant response rating [10, 14]: 3
Barnyardgrass plant response rating [10, 15]: 3
Plant response rating, Barnyardgrass ([10]; Rate 250 g/ha): 4
Plant response rating, Barnyardgrass ([10]; Rate 500 g/ha): 4
Ducksalad plant response rating [11, 14]: 2
Ducksalad plant response rating [11, 15]: 3
Plant response rating, Ducksalad ([11]; Rate 250 g/ha): 5
Plant response rating, Ducksalad ([11]; Rate 500 g/ha): 7
Rice plant response rating (rice (Oryza sativa); [14]): 0
Rice plant response rating (rice (Oryza sativa); [15]): 1
Plant response rating, Rice (rice (Oryza sativa); Rate 250 g/ha): 1
Plant response rating, Rice (rice (Oryza sativa); Rate 500 g/ha): 2
S. Flatsedge plant response rating [12, 14]: 6
S. Flatsedge plant response rating [12, 15]: 8
Plant response rating, S. Flatsedge ([12]; Rate 250 g/ha): 8
Plant response rating, S. Flatsedge ([12]; Rate 500 g/ha): 9
